pIC50: −log10 of the molar value. The source made the active and inactive calls. The calls are words filed in the database; no cut-off is given here.
Columns and labels:
RAW264.7 [1] = experiment: Inhibition of NF-kappaB activation in LPS-stimulated mouse RAW264.7 cells at 1 uM after 24 hrs by Western blotting; assay type: cell-based
[2] = (§1) Cytotoxicity against mouse RAW264.7 cells assessed as cell viability at 5 uM after 24 hrs by MTT assay; assay type: cell-based; settings: RAW264.7 cells, read-out: Activity
[3] = (§2) Cytotoxicity against mouse RAW264.7 cells assessed as cell viability at 10 uM after 24 hrs by MTT assay; assay type: cell-based; settings: RAW264.7 cells, read-out: Activity
RAW264.7 [4] = experiment: as §2; assay type: cell-based; settings: raw264.7, 24 h, 10 µM
[5] = (§3) Cytotoxicity against mouse RAW264.7 cells assessed as cell viability at 25 uM after 24 hrs by MTT assay; assay type: cell-based; settings: RAW264.7 cells, read-out: Activity
RAW264.7 [6] = experiment: Cytotoxicity against mouse RAW264.7 cells after 24 hrs by MTT assay; assay type: cell-based; settings: RAW264.7, 24 h
RAW264.7 [7] = experiment: Antiinflammatory activity against mouse RAW264.7 cells assessed as inhibition of LPS-induced nitrite accumulation after 24 hrs by Griess reagent method; assay type: functional, cell-based; settings: for pIC50: RAW264.7, 24 h
RAW264.7 [8] = experiment: Antiinflammatory activity against mouse RAW264.7 cells assessed as inhibition of LPS-induced iNOS expression at 0.1 to 5 uM after 24 hrs by Western blotting; assay type: functional, cell-based
RAW264.7 [9] = experiment: Inhibition of iNOS mRNA expression in LPS-stimulated mouse RAW264.7 cells at 5 uM after 8 hrs by RT-PCR; assay type: functional, cell-based
[10] = Inhibition of NF-kappaB activation in LPS-stimulated mouse RAW264.7 cells assessed as relative luciferase activity after 24 hrs by dual reporter gene assay; assay type: cell-based; settings: RAW264.7, 24 h
RAW264.7 [11] = experiment: Inhibition of NF-kappaB p65 subunit translocation into nucleus in LPS-stimulated mouse RAW264.7 cells assessed as p65 protein level at 5 uM treated after LPS-stimulation for 24 hrs measured after 60 mins by Western blotting; assay type: functional, cell-based
RAW264.7 [12] = experiment: Inhibition of NF-kappaB p65 subunit translocation into nucleus in LPS-stimulated mouse RAW264.7 cells assessed as p65 protein level at 1 uM pretreated for 1 hr before LPS challenge after 60 mins immunofluorescence microscopy; assay type: functional, cell-based
RAW264.7 [13] = experiment: as §1; assay type: cell-based; settings: raw264.7, 24 h, 5 µM
RAW264.7 [14] = experiment: as §3; assay type: cell-based; settings: raw264.7, 24 h, 25 µM
[15] = molecular target: T1, Inhibitor of nuclear factor kappa-B kinase subunit beta (Mus musculus) (UniProt O88351); experiment: Inhibition of LPS-stimulated IkappaB degradation in mouse RAW264.7 cells assessed as cellular IkappaB level at 5 uM treated after LPS-stimulation for 24 hrs measured after 60 mins by Western blotting; assay type: cell-based
T1 sequence (whole entry): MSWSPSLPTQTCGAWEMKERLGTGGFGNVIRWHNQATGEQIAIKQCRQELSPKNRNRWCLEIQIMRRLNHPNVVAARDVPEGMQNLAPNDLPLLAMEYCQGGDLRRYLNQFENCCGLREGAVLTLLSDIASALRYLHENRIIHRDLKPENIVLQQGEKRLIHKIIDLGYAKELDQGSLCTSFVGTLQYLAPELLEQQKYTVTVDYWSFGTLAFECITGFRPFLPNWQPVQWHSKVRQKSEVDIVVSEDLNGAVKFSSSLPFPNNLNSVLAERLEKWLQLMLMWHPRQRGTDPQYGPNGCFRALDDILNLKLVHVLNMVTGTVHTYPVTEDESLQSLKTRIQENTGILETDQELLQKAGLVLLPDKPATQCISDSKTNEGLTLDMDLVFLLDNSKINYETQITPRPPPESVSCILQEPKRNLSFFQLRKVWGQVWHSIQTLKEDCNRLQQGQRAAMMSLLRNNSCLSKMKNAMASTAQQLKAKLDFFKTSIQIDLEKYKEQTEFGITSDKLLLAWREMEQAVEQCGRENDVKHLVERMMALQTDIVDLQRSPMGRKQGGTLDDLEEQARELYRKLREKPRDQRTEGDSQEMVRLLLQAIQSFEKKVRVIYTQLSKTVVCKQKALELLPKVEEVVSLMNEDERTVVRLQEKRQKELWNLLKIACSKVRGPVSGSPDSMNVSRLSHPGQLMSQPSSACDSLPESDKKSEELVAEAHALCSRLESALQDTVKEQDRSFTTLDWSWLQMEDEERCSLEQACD

Row | SMILES | inhibition (RAW264.7 [1]) | viability at 24 h, 5 µM [2] [%] | viability at 24 h, 10 µM [3] [%] | Activity (RAW264.7 [4]) | viability at 24 h, 25 µM [5] [%] | pIC50 (RAW264.7 [6]) | inhibition (RAW264.7 [7]) | pIC50 (RAW264.7 [7]) | inhibition (RAW264.7 [8]) | inhibition (RAW264.7 [9]) | pIC50 [10] | Activity (RAW264.7 [11]) | Activity (RAW264.7 [12]) | Activity (RAW264.7 [13]) | Activity (RAW264.7 [14]) | Activity [15]
1 | C=C1C(=O)[C@]23[C@H](O)[C@H]1CC[C@H]2[C@]12CCC[C@@](C)(COC(C)=O)[C@H]1[C@H](O)[C@]3(O)OC2 [LONGIKAURIN B] | Active | > 97.5 | > 97.5 | Non-toxic | > 97.5 | 4.35 | Dose-dependent effect | 6.36 | Active | Active | 5.92 | Active | Active |  |  | 
2 | C=C1C(=O)[C@@]23[C@@H]4O[C@H]5O[C@@]2(O)[C@@H](O)[C@@H]2C(C)(C)CCC[C@]52[C@@H]3[C@@H](OC(C)=O)C[C@@H]14 [XEROPHILUSIN A] | Active | > 97.5 | > 97.5 |  | > 97.5 | 4.95 | Dose-dependent effect | 6.22 | Active | Active | 5.74 | Active | Active | Non-toxic |  | 
3 | C=C1C(=O)[C@@]23[C@@H]4O[C@H]5O[C@@]2(O)[C@@H](O)[C@@H]2C(C)(C)CCC[C@]52[C@@H]3CC[C@@H]14 [XEROPHILUSIN B] | Active | > 97.5 | > 97.5 |  | > 97.5 | 5.00 | Dose-dependent effect | 6.65 | Active | Active | 6.15 | Active | Active | Non-toxic |  | 
4 | C=C1C(=O)[C@]23[C@H](O)[C@H]1C[C@H](OC(C)=O)[C@H]2[C@]12CCCC(C)(C)[C@H]1C(=O)[C@]3(O)[C@H]2O [XEROPHILUSIN F] | inactive | > 97.5 | > 97.5 |  | > 97.5 | 4.28 | Dose-dependent effect | 6.17 | Active | Active | 5.80 | Active | Active |  | Non-toxic | Active
